Experimental data: patent US20240383882A1 (Ecstasy LLC, priority 2020, published 2024)

Test system: male C57BL/6 mice
Assay: 55° C. warm-water tail-flick test (antinociception)
Type: in vivo
Settings: Mus musculus; half maximal effective dose in mice; using one of: warm water tail-flick test, spared nerve injury, chronic constriction injury, or Complete Freund's adjuvant induced inflammatory pain (not stated which per compound); read-out: Biological Activity (ED50)
In short: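 Mice with baseline tail-flick latency within 2 s at 55° C received compound s.c. and were retested at 30, 60, 90 and 120 min. % antinociception = 100×(test−control latency)/(20−control latency); ED50 in mg/kg.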

Question: How did the ED50 turn out when `CC(C)(c1ccccn1)N1CC[C@@](CCc2ccc(C#N)cc2)(C(O)(C(F)(F)F)C(F)(F)F)C1` [Compound 119, (R)-4-(2-(3-(1,1,1,3,3,3-hexafluoro-2-hydroxypropan-2-yl)-1-(2-(pyridin-2-yl)propan-2-yl)pyrrolidin-3-yl)ethyl) benzonitrile] was run?
Answer: > 50 mg/kg

Question: For `CC(C)(c1ccccn1)N1CC[C@@](CCc2ccc(C#N)cc2)(c2nnco2)C1` [Compound 124, (R)-4-(2-(3-(1,3,4-oxadiazol-2-yl)-1-(2-(pyridin-2-yl)propan-2-yl)pyrrolidin-3-yl)ethyl) benzonitrile], which ED50 is on record?
Answer: > 50 mg/kg

Question: With `CC(C)(c1ccccn1)N1CC[C@@](CCc2cccc(C#N)c2)(COCc2ccccc2)C1` [Compound 125, (R)-3-(2-(3-((benzyloxy)methyl)-1-(2-(pyridin-2-yl)propan-2-yl)pyrrolidin-3-yl)ethyl) benzonitrile] as the compound, how does the ED50 read?
Answer: > 50 mg/kg

Question: For `CC(C)(c1ccccn1)N1CC[C@@](CCc2ccccc2C#N)(COCc2ccccc2)C1` [Compound 126, (R)-2-(2-(3-((benzyloxy)methyl)-1-(2-(pyridin-2-yl)propan-2-yl)pyrrolidin-3-yl)ethyl) benzonitrile], which ED50 is on record?
Answer: > 50 mg/kg

Question: `CC(C)(c1ccccn1)N1CC[C@](CO)(CCc2cccc(C#N)c2)C1` [Compound 127, (R)-3-(2-(3-(hydroxymethyl)-1-(2-(pyridin-2-yl)propan-2-yl)pyrrolidin-3-yl)ethyl) benzonitrile] was tested. Which ED50 did it give?
Answer: > 50 mg/kg

Question: `CCOC[C@]1(CCc2cccc(C#N)c2)CCN(C(C)(C)c2ccccn2)C1` [Compound 128, (R)-3-(2-(3-(ethoxymethyl)-1-(2-(pyridin-2-yl)propan-2-yl)pyrrolidin-3-yl)ethyl) benzonitrile] was tested. Which ED50 did it give?
Answer: > 50 mg/kg

Question: How did the ED50 turn out when `CC(C)(c1ccccn1)N1CC[C@](CO)(CCc2ccccc2C#N)C1` [Compound 129, (R)-2-(2-(3-(hydroxymethyl)-1-(2-(pyridin-2-yl)propan-2-yl)pyrrolidin-3-yl)ethyl) benzonitrile] was run?
Answer: > 50 mg/kg

Question: Which ED50 does the source give for `CCOC[C@]1(CCc2ccccc2C#N)CCN(C(C)(C)c2ccccn2)C1` [Compound 130, (R)-2-(2-(3-(ethoxymethyl)-1-(2-(pyridin-2-yl)propan-2-yl)pyrrolidin-3-yl)ethyl) benzonitrile] here?
Answer: > 50 mg/kg

Question: With `CC(C)(c1ccccn1)N1CC[C@@](CCc2ccc(C#N)cc2)(COCc2ccccc2)C1` [Compound 131, (R)-4-(2-(3-((benzyloxy)methyl)-1-(2-(pyridin-2-yl)propan-2-yl)pyrrolidin-3-yl)ethyl) benzonitrile] as the compound, how does the ED50 read?
Answer: > 50 mg/kg

Question: `CCOC[C@]1(CCc2ccc(C#N)cc2)CCN(C(C)(C)c2ccccn2)C1` [Compound 132, (R)-4-(2-(3-(ethoxymethyl)-1-(2-(pyridin-2-yl)propan-2-yl)pyrrolidin-3-yl)ethyl) benzonitrile] was tested. Which ED50 did it give?
Answer: > 50 mg/kg

Question: How did the ED50 turn out when `CC(C)(c1ccccn1)N1CC[C@@](CCc2cccc(C#N)c2)([C@H](O)C(F)(F)F)C1` [Compound 133, 3-(2-((R)-1-(2-(pyridin-2-yl)propan-2-yl)-3-((S)-2,2,2-trifluoro-1-hydroxyethyl)pyrrolidin-3-yl)ethyl) benzonitrile] was run?
Answer: > 50 mg/kg

Question: How did the ED50 turn out when `CCOC(C(F)(F)F)(C(F)(F)F)[C@]1(CCc2ccc(C#N)cc2)CCN(C(C)(C)c2ccccn2)C1` [Compound 137, (R)-4-(2-(3-(2-ethoxy-1,1,1,3,3,3-hexafluoropropan-2-yl)-1-(2-(pyridin-2-yl)propan-2-yl)pyrrolidin-3-yl)ethyl) benzonitrile] was run?
Answer: > 50 mg/kg

Question: With `CC(C)(c1ccccn1)N1CC[C@@](CCc2ccc(C#N)cc2)(C(=O)O)C1` [Compound 138, (R)-3-(4-cyanophenethyl)-1-(2-(pyridin-2-yl)propan-2-yl)pyrrolidine-3-carboxylic acid] as the compound, how does the ED50 read?
Answer: > 50 mg/kg

Question: For `CCOC(=O)[C@]1(CCc2ccc(C#N)cc2)CCN(C(C)(C)c2ccccn2)C1` [Compound 139, ethyl (R)-3-(4-cyanophenethyl)-1-(2-(pyridin-2-yl)propan-2-yl)pyrrolidine-3-carboxylate], which ED50 is on record?
Answer: > 50 mg/kg

Question: For `CC(C)(c1ccc(C(F)(F)F)nc1)N1CC[C@@](CCc2ccc(C#N)cc2)(C(C)(C)O)C1` [Compound 140, (R)-4-(2-(3-(2-hydroxypropan-2-yl)-1-(2-(6-(trifluoromethyl)pyridin-3-yl)propan-2-yl)pyrrolidin-3-yl)ethyl) benzonitrile], which ED50 is on record?
Answer: > 50 mg/kg

Question: With `CC(C)(c1ccccn1)N1CC[C@@](CCc2ccc(C#N)s2)(COCc2ccccc2)C1` [Compound 141, (R)-5-(2-(3-((benzyloxy)methyl)-1-(2-(pyridin-2-yl)propan-2-yl)pyrrolidin-3-yl)ethyl)thiophene-2-carbonitrile] as the compound, how does the ED50 read?
Answer: ≤ 30 mg/kg

Question: `COc1cccc(C(C)(C)N2CC[C@](CO)(CCc3ccc(C#N)cc3)C2)c1` [Compound 142, (R)-4-(2-(3-(hydroxymethyl)-1-(2-(3-methoxyphenyl)propan-2-yl)pyrrolidin-3-yl)ethyl) benzonitrile] was tested. Which ED50 did it give?
Answer: > 50 mg/kg

Question: With `COc1cccc(C(C)(C)N2CC[C@@](CCc3ccc(C#N)cc3)(C(=O)O)C2)c1` [Compound 143, (R)-3-(4-cyanophenethyl)-1-(2-(3-methoxyphenyl)propan-2-yl)pyrrolidine-3-carboxylic acid] as the compound, how does the ED50 read?
Answer: > 50 mg/kg

Question: With `Cc1cccc(C(C)(C)N2CC[C@](CO)(CCc3ccc(C#N)cc3)C2)n1` [Compound 144, (R)-4-(2-(3-(hydroxymethyl)-1-(2-(6-methylpyridin-2-yl)propan-2-yl)pyrrolidin-3-yl)ethyl) benzonitrile] as the compound, how does the ED50 read?
Answer: > 50 mg/kg

Question: `Cc1cccc(C(C)(C)N2CC[C@@](CCc3ccc(C#N)cc3)(C(=O)O)C2)n1` [Compound 145, (R)-3-(4-cyanophenethyl)-1-(2-(6-methylpyridin-2-yl)propan-2-yl)pyrrolidine-3-carboxylic acid] was tested. Which ED50 did it give?
Answer: > 50 mg/kg

Question: Which ED50 does the source give for `CC(C)(c1ccccn1)N1CC[C@](CO)(CCc2ccc(F)c(F)c2)C1` [Compound 146, (R)-(3-(3,4-difluorophenethyl)-1-(2-(pyridin-2-yl)propan-2-yl)pyrrolidin-3-yl)methanol] here?
Answer: > 50 mg/kg

Question: For `CC(C)(c1ccccn1)N1CC[C@](CO)(CCc2ccc(C#N)s2)C1` [Compound 147, (R)-5-(2-(3-(hydroxymethyl)-1-(2-(pyridin-2-yl)propan-2-yl)pyrrolidin-3-yl)ethyl)thiophene-2-carbonitrile], which ED50 is on record?
Answer: > 50 mg/kg

Question: `COc1cccc(C(C)(C)N2CC[C@@](CCc3ccc(C#N)cc3)(C(N)=O)C2)c1` [Compound 148, (R)-3-(4-cyanophenethyl)-1-(2-(3-methoxyphenyl)propan-2-yl)pyrrolidine-3-carboxamide] was tested. Which ED50 did it give?
Answer: > 50 mg/kg

Question: For `Cc1cccc(C(C)(C)N2CC[C@@](CCc3ccc(C#N)cc3)(C(N)=O)C2)n1` [Compound 149, (R)-3-(4-cyanophenethyl)-1-(2-(6-methylpyridin-2-yl)propan-2-yl)pyrrolidine-3-carboxamide], which ED50 is on record?
Answer: > 50 mg/kg

Question: For `CC(C)(c1ccccn1)N1CC[C@@](CCc2ccc(C#N)s2)(C(=O)C(F)(F)F)C1` [Compound 154, (R)-5-(2-(1-(2-(pyridin-2-yl)propan-2-yl)-3-(2,2,2-trifluoroacetyl)pyrrolidin-3-yl)ethyl)thiophene-2-carbonitrile], which ED50 is on record?
Answer: > 50 mg/kg

Question: How did the ED50 turn out when `CNC(=O)[C@]1(CCc2ccc(C#N)cc2)CCN(C(C)(C)c2ccccn2)C1` [Compound 155, (R)-3-(4-cyanophenethyl)-N-methyl-1-(2-(pyridin-2-yl)propan-2-yl)pyrrolidine-3-carboxamide] was run?
Answer: ≤ 30 mg/kg

Question: For `COc1cccc(C(C)(C)N2CC[C@](CO)(CCc3ccc(C#N)cc3)C2)n1` [Compound 157, (R)-4-(2-(3-(hydroxymethyl)-1-(2-(6-methoxypyridin-2-yl)propan-2-yl)pyrrolidin-3-yl)ethyl) benzonitrile], which ED50 is on record?
Answer: ≤ 30 mg/kg

Question: How did the ED50 turn out when `COc1cccc(C(C)(C)N2CC[C@@](CCc3ccc(C#N)cc3)(C(=O)O)C2)n1` [Compound 158, (R)-3-(4-cyanophenethyl)-1-(2-(6-methoxypyridin-2-yl)propan-2-yl)pyrrolidine-3-carboxylic acid] was run?
Answer: > 50 mg/kg

Question: `COc1cccc(C(C)(C)N2CC[C@@](CCc3ccc(C#N)cc3)(C(N)=O)C2)n1` [Compound 159, (R)-3-(4-cyanophenethyl)-1-(2-(6-methoxypyridin-2-yl)propan-2-yl)pyrrolidine-3-carboxamide] was tested. Which ED50 did it give?
Answer: ≤ 30 mg/kg

Question: For `CC(C)(c1ccccn1)N1CC[C@@](CCc2ccc(C#N)s2)(C(O)(C(F)(F)F)C(F)(F)F)C1` [Compound 160, (R)-5-(2-(3-(1,1,1,3,3,3-hexafluoro-2-hydroxypropan-2-yl)-1-(2-(pyridin-2-yl)propan-2-yl)pyrrolidin-3-yl)ethyl)thiophene-2-carbonitrile], which ED50 is on record?
Answer: > 50 mg/kg

Question: For `CCOC(C(F)(F)F)(C(F)(F)F)[C@]1(CCc2ccc(C#N)s2)CCN(C(C)(C)c2ccccn2)C1` [Compound 161, (R)-5-(2-(3-(2-ethoxy-1,1,1,3,3,3-hexafluoropropan-2-yl)-1-(2-(pyridin-2-yl)propan-2-yl)pyrrolidin-3-yl)ethyl)thiophene-2-carbonitrile], which ED50 is on record?
Answer: > 50 mg/kg

Question: How did the ED50 turn out when `CC(C)(c1ccccn1)N1CC[C@@](CCc2ccc(C#N)cc2)(CS(C)(=O)=O)C1` [Compound 162, (R)-4-(2-(3-((methylsulfonyl)methyl)-1-(2-(pyridin-2-yl)propan-2-yl)pyrrolidin-3-yl)ethyl) benzonitrile] was run?
Answer: > 50 mg/kg

Question: Which ED50 does the source give for `CC(C)(c1ccccn1)N1CC[C@@](CCc2ccc3nonc3c2)(COCc2ccccc2)C1` [Compound 163, (R)-5-(2-(3-((benzyloxy)methyl)-1-(2-(pyridin-2-yl)propan-2-yl)pyrrolidin-3-yl)ethyl)benzo[c] [1,2,5]oxadiazole] here?
Answer: > 50 mg/kg

Question: With `CC(C)(c1ccccn1)N1CC[C@@](CCc2ccc3ccoc3c2)(COCc2ccccc2)C1` [Compound 164, (R)-2-(2-(3-(2-(benzofuran-6-yl)ethyl)-3-((benzyloxy)methyl)pyrrolidin-1-yl)propan-2-yl)pyridine] as the compound, how does the ED50 read?
Answer: > 50 mg/kg

Question: With `Cc1ccc(C(C)(C)N2CC[C@@](CCc3ccc(C#N)cc3)(C(O)(C(F)(F)F)C(F)(F)F)C2)cn1` [Compound 165, (R)-4-(2-(3-(1,1,1,3,3,3-hexafluoro-2-hydroxypropan-2-yl)-1-(2-(6-methylpyridin-3-yl)propan-2-yl)pyrrolidin-3-yl)ethyl) benzonitrile] as the compound, how does the ED50 read?
Answer: ≤ 30 mg/kg
